# Assay results from patent US5986136A, “Photolabeling reagent” (President and Fellows of Harvard College, priority 1998, dated 1999).
# Entries after “also recorded” stand apart in the source; their conditions may differ.
# Tests used:
# [1] = target: anti-substance P antibody; assay: Radioimmunoassay: displacement of [^125 I]BHSP from anti-substance P antibody; type: binding; details: for IC50: antibody dilution 1/160,000, [^125 I]BHSP 3.3 pM, 4° C. overnight, mean±standard deviation of ≥3 experiments
# SPR in P388D1 cells [2] = target: T1, SPR in P388D1 cells (Mus musculus, UniProt P30548); assay: Photoaffinity labeling of SPR in P388D1 cells; type: binding, murine; details: presence of excess unlabeled SP or CP-96,345
# T1 construct: a nontransfected murine macrophage/monocyte cell line; endogenous in cells; host or cells: P388D1 (murine macrophage/monocyte cell line)
# T1 sequence (P30548 whole entry, one chain of several): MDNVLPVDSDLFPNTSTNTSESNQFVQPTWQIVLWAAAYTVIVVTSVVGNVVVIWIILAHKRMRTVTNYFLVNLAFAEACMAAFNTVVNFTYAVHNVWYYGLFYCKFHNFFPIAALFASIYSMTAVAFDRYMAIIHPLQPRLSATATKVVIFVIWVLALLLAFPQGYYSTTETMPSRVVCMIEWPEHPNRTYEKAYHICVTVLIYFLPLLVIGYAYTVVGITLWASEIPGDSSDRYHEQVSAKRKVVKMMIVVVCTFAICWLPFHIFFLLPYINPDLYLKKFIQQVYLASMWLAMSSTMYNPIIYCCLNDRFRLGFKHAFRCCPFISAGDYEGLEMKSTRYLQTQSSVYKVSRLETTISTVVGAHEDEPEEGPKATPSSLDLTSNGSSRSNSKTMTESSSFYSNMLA
# Procedure: P388D1 cells (5×10^6 cells/5 ml) were inoculated on FBS-pretreated dishes (60 mm) in DMEM with 10% FBS and grown overnight. The cultured cells (approximately 1×10^7) were incubated with protease inhibitors and 0.1% BSA for 30 min at room temperature (25° C.). The cells were then washed twice (5 ml) with ice-cold buffer (DMEM+20 mM HEPES, pH 6.7) and incubated with 5 ml of buffer on ice for at least 10 min, in the presence of protease inhibitors, and 0.1% BSA. […] The dishes were then frozen by placement on crushed dry ice. The frozen sample was irradiated under nitrogen for 2 h using a focused HBO 100-watt mercury short arc lamp through an optical filter to eliminate light below 310 nm. A second filter removed infrared wavelengths (>900 nm) to minimize sample heating during photolysis (Li et al., 1995a). Alternatively, the sample can be irradiated in a commerical photoreactor at 3500 Å.
# After photolysis, the sample was thawed and any remaining attached cells were scraped from the bottom of the plate. The sample was transferred to microfuge tubes and centrifuged at 16,000 g for 30 min. The pelleted cells were hypotonically lysed by resuspending in 0.3 ml of 5 mM Tris-HCl, pH 8.0, for 15 min at room temperature. Then the samples were homogenized and centrifuged at 500 g for 15 min to remove debris. […]
# [3] = Retention of radioiodine during photolysis (model benzophenone); type: physicochemical; details: receptor photolabeling conditions, twice the photolysis time
# SPR in P388D1 cells [4] = target: T1, SPR in P388D1 cells; type: binding, murine
# Procedure: Percentage of tracer bound was determined by solubilization and counting after washing away excess unbound tracer. […] The data shown is the average of four experiments containing triplicate samples in each. IC50 is expressed as the mean±standard deviation of ≥4 experiments.
# Protease inhibitors (0.004% bacitracin, 0.0002% chymostatin, 0.0004% leupeptin) and 0.1% BSA was added to the confluent cells (approximately 1×10^6 cells/well in DMEM and 10% FBS) and incubated for 30 min at room temperature (25° C.). The cells were then washed twice (0.5 ml/well) with ice-cold buffer (DMEM+20 mM HEPES, pH 7.2) and incubated with 0.5 ml of buffer on ice for at least 10 min in the presence of protease inhibitors and 0.1% BSA. […] After incubation, the cells were washed twice with 0.5 ml/well phosphate-buffered saline (104 mM NaCl, 2.7 mM KCl, 10 mM Na2 HPO4, 1.8 mM KH2 PO4, pH 7.2), then solubilized by 0.5 ml lysis buffer (1% Nonidet P-40, 0.2% SDS, 150 mM NaCl, 50 mM Tris, pH 8.0) for 20 min and transferred for gamma counting. […] Curve fitting was performed as described above.
compound,measurement,setting,value
"CSCC[C@H](NC(=O)[C@H](CC(C)C)NC(=O)CNC(=O)[C@H](Cc1ccccc1)NC(=O)[C@H](Cc1ccccc1)NC(=O)[C@H](CCC(N)=O)NC(=O)[C@H](CCC(N)=O)NC(=O)[C@@H]1CCCN1C(=O)[C@H](CCCCN)NC(=O)[C@@H]1CCCN1C(=O)[C@@H](N)CCCNC(=N)N)C(N)=O [SP, reference compound]",IC50,[1],0.071 ± 0.006 nM
"COc1ccccc1CN[C@H]1C2CCN(CC2)[C@H]1C(c1ccccc1)c1ccccc1 [CP-96,345, (2S, 3S)-cis-2-(diphenylmethyl)-N-[(2-methoxyphenyl)-methyl]-1-aza-bicyclo[2.2.2]octan-3-amine]",inhibition of photolabeling by [^125 I]HBPA^8 -SP,SPR in P388D1 cells [2],completely inhibited
O=C(c1ccccc1)c1ccc(O)c([125I])c1 [[^125 I]-3-iodo-4-hydroxybenzophenone],radioiodine remaining incorporated in the starting material after photolysis,[3],greater than 98%
CSCC[C@H](NC(=O)[C@H](CC(C)C)NC(=O)CNC(=O)[C@@H](Cc1ccc(C(=O)c2ccc(O)cc2)cc1)NC(=O)[C@H](Cc1ccccc1)NC(=O)[C@H](CCC(N)=O)NC(=O)[C@H](CCC(N)=O)NC(=O)[C@@H]1CCCN1C(=O)[C@H](CCCCN)NC(=O)[C@@H]1CCCN1C(=O)[C@@H](N)CCCNC(=N)N)C(N)=O [D-HBPA^8 -SP],IC50,[1],0.39 ± 0.04 nM
same,IC50,"SPR in P388D1 cells [4]; tracer 25 pM [^125 I]BHSP, 2 h on ice, mean±standard deviation of ≥4 experiments, read-out: IC50 for displacement of [^125 I]BHSP",1.5 ± 0.34 nM
"CSCC[C@H](NC(=O)[C@H](CC(C)C)NC(=O)CNC(=O)[C@H](Cc1ccc(C(=O)c2ccc(O)cc2)cc1)NC(=O)[C@H](Cc1ccccc1)NC(=O)[C@H](CCC(N)=O)NC(=O)[C@H](CCC(N)=O)NC(=O)[C@@H]1CCCN1C(=O)[C@H](CCCCN)NC(=O)[C@@H]1CCCN1C(=O)[C@@H](N)CCCNC(=N)N)C(N)=O [L-HBPA^8 -SP, ArgProLysProGlnGlnPhe(L-HBPA)GlyLeuMet-NH2]",IC50,[1],0.052 ± 0.008 nM
same,affinity for anti-SP antiserum (in words),[1]; compared with native SP or other diastereomer,binds to the antibody with a higher affinity
same,"activity with both a SP specific antibody and SPR, antibody part (in words)",[1]; first HPLC peak versus second,more active than the second
same,"activity with both a SP specific antibody and SPR, receptor part (in words)",SPR in P388D1 cells [4]; first HPLC peak versus second,more active than the second
same,affinity / specificity for SPR (in words),"SPR in P388D1 cells [4]; murine SP receptor, P388D1 cells",bind with high affinity and specificity to SPR; also recorded: a specific as well as a high affinity ligand for the receptor
